Paper PMC10525797, “Streptomyces rugosispiralis sp. nov., a Novel Actinobacterium Isolated from Peat Swamp Forest Soil That Produces Ansamycin Derivatives and Nocardamines” (Antibiotics, 2023)
In brackets after ≈: the same amount, converted by molar mass.

Columns and labels:
Plasmodium berghei = test system: Plasmodium berghei; set-up: method as in PMID 5459626; settings: cited from earlier work
[1] = test system: Plasmodium falciparum (K-1, multi-drug resistant strain); experiment: microbe, parasite or virus in culture; type: cell-based; settings: for Anti-P. falciparum IC50: K-1 multi-drug resistant strain, inactive = at the final concentration of 50 μg/mL; for IC50: Plasmodium falciparum, read-out: Anti-P. falciparum IC50
[2] = test system: HPV-18-positive HeLa cells; set-up: method as in PMID 28862674; settings: cervical cancer cell line; cited from earlier work
in vitro [3] = settings: African green monkey
Setosphaeria turcica = test system: Setosphaeria turcica; set-up: method as in PMID 28862674; settings: plant pathogen; cited from earlier work
Bacillus cereus = experiment: Antibacterial resazurin microplate assay (REMA), anti-B. cereus; type: cell-based; settings: inactive = at the final concentration of 50 μg/mL
[4] = test system: Mycobacterium tuberculosis strain H37Ra; experiment: microbe, parasite or virus in culture; type: cell-based; settings: for MIC: Mycobacterium tuberculosis, H37RA, read-out: Anti-M. tuberculosis MIC
Syphacia oblevata = test system: Syphacia oblevata; set-up: method as in PMID 5459626; settings: cited from earlier work
[5] = test system: KB (oral human epidermoid carcinoma, ATCC CCL-17); settings: KB cells; inactive = at the final concentration of 50 μg/mL
[6] = test system: MCF-7 (human breast cancer, ATCC HTC-22); settings: MCF-7 cells; inactive = at the final concentration of 50 μg/mL
in vitro [7] = settings: human
oncostatin M signaling = settings: cell-based; cited from earlier work
Hsp90 ATPase = biological target: Hsp90 ATPase; set-up: method as in PMID 23124337; settings: isolated from Streptomyces hygroscopicus JCM4427; read-out: Hsp90 ATPase inhibition IC50; cited from earlier work
[8] = test system: human histiocytic lymphoma U-937 cell line; set-up: method as in PMID 11213294; settings: cited from earlier work
[9] = set-up: method as in PMID 15844966; settings: final concentration of up to 200 μg/mL; cited from earlier work
T-47D = test system: T-47D; set-up: method as in PMID 21376551; settings: cited from earlier work
PRMI-7951 = test system: PRMI-7951; set-up: method as in PMID 21376551; settings: cited from earlier work
B. subtilis = test system: B. subtilis; set-up: method as in PMID 21376551; settings: cited from earlier work
E. faecium = test system: E. faecium; set-up: method as in PMID 21376551; settings: cited from earlier work
[10] = test system: tested microorganisms used in this study; experiment: Antimicrobial activity test, tested microorganisms of this study; type: cell-based; settings: at a concentration of 50 μg/mL
SK-Mel-28 = test system: SK-Mel-28; set-up: method as in PMID 21376551; settings: cited from earlier work
V. alginolyticus = test system: V. alginolyticus; set-up: method as in PMID 21376551; settings: cited from earlier work
SK-Mel-5 = test system: SK-Mel-5; set-up: method as in PMID 21376551; settings: cited from earlier work
[11] = test system: NCI-H187 (human small-cell lung cancer, ATCC CRL-5804); settings: NCI-H187 cells; inactive = at the final concentration of 50 μg/mL
C. albicans = test system: C. albicans; set-up: method as in PMID 21376551; settings: cited from earlier work
[12] = test system: Vero cells (African green monkey kidney fibroblasts, ATCC CCL-81); settings: inactive = at the final concentration of 50 μg/mL
in vitro [13] = settings: human; remark: listed apart in the source

SMILES: COC1=C2C[C@@H](C)C[C@H](OC)[C@H](O)[C@@H](C)/C=C(\C)[C@H](OC(N)=O)[C@@H](OC)/C=C\C=C(/C)C(=O)NC(=CC1=O)C2=O [(1), geldanamycin]
- in vivo anti-parasitic activity against Plasmodium berghei (Plasmodium berghei): not against Plasmodium berghei
- Anti-P. falciparum IC50 [1]: inactive
- growth of HPV-18-positive HeLa cells [2]: inhibited the growth
- IC50 (in vitro [3]): 0.094 µg/mL (≈ 0.168 µM)
- antifungal activity against Setosphaeria turcica (Setosphaeria turcica): antifungal activity
- Anti-B. cereus MIC (Bacillus cereus): inactive
- Anti-M. tuberculosis MIC [4]: inactive
- in vivo anti-parasitic activity against Syphacia oblevata (Syphacia oblevata): in vivo anti-parasitic activity

SMILES: CO[C@H]1/C=C\C=C(/C)C(=O)NC2=CC(=O)C(O)=C(C[C@@H](C)C[C@H](OC)[C@H](O)[C@@H](C)/C=C(\C)[C@@H]1OC(N)=O)C2=O [(2), 17-O-demethylgeldanamycin]
- Cytotoxicity IC50 KB [5]: inactive
- Anti-P. falciparum IC50 [1]: inactive
- IC50 (in vitro [3]): 6.43 µg/mL (≈ 11.8 µM)
- Anti-B. cereus MIC (Bacillus cereus): inactive
- Cytotoxicity IC50 MCF-7 [6]: inactive
- Anti-M. tuberculosis MIC [4]: inactive
- IC50 (in vitro [7]): 4.25 µg/mL (≈ 7.78 µM)

SMILES: COc1c(O)cc2cc1C[C@@H](C)C[C@H](OC)[C@H](O)[C@@H](C)/C=C(\C)[C@H](OC(N)=O)[C@@H](OC)CC/C=C(\C)C(=O)N2 [(3), reblastatin]
- IC50 (oncostatin M signaling): 160 nM
- Anti-P. falciparum IC50 [1]: inactive
- IC50 (in vitro [3]): 7.75 µg/mL (≈ 14.1 µM)
- IC50 (Hsp90 ATPase): 320 nM
- Anti-B. cereus MIC (Bacillus cereus): inactive
- Anti-M. tuberculosis MIC [4]: inactive
- inhibition of proliferation of U-937 IC50 [8]: 0.43 µg/mL

SMILES: CO[C@H]1C[C@H](C)Cc2cc(O)cc(c2)NC(=O)/C(C)=C/CC[C@H](OC)[C@@H](OC(N)=O)/C(C)=C/[C@H](C)[C@H]1O [(4), 17-demethoxyreblastatin]
- Cytotoxicity IC50 KB [5]: inactive
- Anti-P. falciparum IC50 [1]: inactive
- IC50 (in vitro [3]): 13.5 µg/mL (≈ 26 µM)
- IC50 (Hsp90 ATPase): 1820 nM
- Anti-B. cereus MIC (Bacillus cereus): inactive
- Cytotoxicity IC50 MCF-7 [6]: inactive
- Anti-M. tuberculosis MIC [4]: inactive
- IC50 (in vitro [7]): 1.33 µg/mL (≈ 2.56 µM)

SMILES: O=C1CCC(=O)N(O)CCCCCNC(=O)CCC(=O)N(O)CCCCCNC(=O)CCC(=O)N(O)CCCCCN1 [(5), nocardamine]
- antimicrobial activity [9]: no antimicrobial activity
- cell proliferation of T-47D (T-47D): did not inhibit cell proliferation
- colony formation of T-47D (T-47D): did inhibit their colony formation
- cell proliferation of PRMI-7951 (PRMI-7951): did not inhibit cell proliferation
- colony formation of PRMI-7951 (PRMI-7951): did inhibit their colony formation
- Cytotoxicity IC50 KB [5]: inactive
- antimicrobial activity against B. subtilis (B. subtilis): weak antimicrobial activity
- antimicrobial activity against E. faecium (E. faecium): weak antimicrobial activity
- Anti-P. falciparum IC50 [1]: inactive
- IC50 (in vitro [3]): 16.6 µg/mL (≈ 27.6 µM)
- antimicrobial activity against tested microorganisms [10]: inactive
- Anti-B. cereus MIC (Bacillus cereus): inactive
- Cytotoxicity IC50 MCF-7 [6]: inactive
- cell proliferation of SK-Mel-28 (SK-Mel-28): did not inhibit cell proliferation
- colony formation of SK-Mel-28 (SK-Mel-28): did inhibit their colony formation
- Anti-M. tuberculosis MIC [4]: inactive
- antimicrobial activity against V. alginolyticus (V. alginolyticus): no activity
- cell proliferation of SK-Mel-5 (SK-Mel-5): did not inhibit cell proliferation
- colony formation of SK-Mel-5 (SK-Mel-5): did inhibit their colony formation
- Cytotoxicity IC50 NCI-H187 [11]: inactive
- antimicrobial activity against C. albicans (C. albicans): no activity

SMILES: O=C1CCC(=O)NCCCCCN(O)C(=O)CCC(=O)NCCCCCN(O)C(=O)CCC(=O)NCCCCCN1 [(6), dehydroxynocardamine]
- antimicrobial activity [9]: no antimicrobial activity
- Cytotoxicity IC50 KB [5]: inactive
- Cytotoxicity IC50 Vero [12]: inactive
- Anti-P. falciparum IC50 [1]: inactive
- antimicrobial activity against tested microorganisms [10]: inactive
- Anti-B. cereus MIC (Bacillus cereus): inactive
- Cytotoxicity IC50 MCF-7 [6]: inactive
- Anti-M. tuberculosis MIC [4]: inactive
- IC50 (in vitro [7]): 14 µg/mL (≈ 23.9 µM)

SMILES: C[C@H]1[C@@H](O)O[C@@H]2O[C@@]3(C)CC[C@H]4[C@H](C)CC[C@@H]1[C@@]24OO3 [Dihydroartemisinine, reference compound]
- IC50 [1]: 0.000702 µg/mL (≈ 0.00247 µM)

SMILES: Cc1c2ccncc2c(C)c2c1[nH]c1ccccc12 [Ellipticine, reference compound]
- IC50 (in vitro [3]): 1.58 µg/mL (≈ 6.41 µM)

SMILES: CC[C@@H](CO)NCCN[C@@H](CC)CO [Ethambutol, reference compound]
- MIC [4]: 0.938 µg/mL (≈ 4.59 µM)

SMILES: NNC(=O)c1ccncc1 [Isoniazid, reference compound]
- MIC [4]: 0.047 µg/mL (≈ 0.343 µM)

SMILES: OC(c1cc(C(F)(F)F)nc2c(C(F)(F)F)cccc12)C1CCCCN1 (stereo not drawn) [Mefloquine, reference compound]
- IC50 [1]: 0.024 µg/mL (≈ 0.0634 µM)

SMILES: CC1COc2c(N3CCN(C)CC3)c(F)cc3c(=O)c(C(=O)O)cn1c23 (stereo not drawn) [Ofloxacin, reference compound]
- MIC [4]: 0.391 µg/mL (≈ 1.08 µM)

SMILES: CO[C@H]1/C=C/O[C@@]2(C)Oc3c(C)c(O)c4c(O)c(c(/C=N/N5CCN(C)CC5)c(O)c4c3C2=O)NC(=O)/C(C)=C\C=C\[C@H](C)[C@H](O)[C@@H](C)[C@@H](O)[C@@H](C)[C@H](OC(C)=O)[C@@H]1C [Rifampicin, reference compound]
- MIC [4]: 0.013 µg/mL (≈ 0.0158 µM)

SMILES: CC/C(=C(\c1ccccc1)c1ccc(OCCN(C)C)cc1)c1ccccc1 [Tamoxifen, reference compound]
- IC50 (in vitro [13]): 6.96 µg/mL (≈ 18.7 µM)

SMILES: CN[C@H](CC(C)C)C(=O)N[C@H]1C(=O)N[C@@H](CC(N)=O)C(=O)N[C@H]2C(=O)N[C@H]3C(=O)N[C@H](C(=O)N[C@H](C(=O)O)c4cc(O)cc(O)c4-c4cc3ccc4O)[C@H](O)c3ccc(c(Cl)c3)Oc3cc2cc(c3O[C@@H]2O[C@H](CO)[C@@H](O)[C@H](O)[C@H]2O[C@H]2C[C@](C)(N)[C@H](O)[C@H](C)O2)Oc2ccc(cc2Cl)[C@H]1O [Vancomycin, reference compound]
- MIC (Bacillus cereus; Bacillus cereus): 2 µg/mL (≈ 1.38 µM)
